≈ marks a conversion by molar mass, not a printed value. Where two headings read alike, the source gives them in different places. Starred links: 1 amine or outer side, 2 acyl side, 3 side chain; linkers in the order of their positions; H or OH if unused. Non-standard residues stand in square brackets, D forms with d. Residues, ends and D or L forms follow the SMILES beside them. *: point of attachment. X8 = O=C(CCc1c[nH]c2ccccc12)Oc1ccc(C[C@H](N[*:1])C(=O)[*:2])cc1[N+](=O)[O-]; X2 = COC(=O)[C@@H](NC(=O)[C@@H](C)C[C@@H](C(=O)[*:2])N(C)[*:1])[C@@H](C)O; X3 = O=C(Cc1ccc(F)cc1)Oc1ccc(C[C@H](N[*:1])C(=O)[*:2])cc1[N+](=O)[O-]; X13 = C[C@@H](C[C@@H](C(=O)[*:2])N(C)[*:1])C(=O)NCc1ccc(C(F)(F)F)cc1; Trp(1-(1,1-Me2-allyl)) = C=CC(C)(C)n1cc(C[C@H](N)C(=O)O)c2ccccc21; X5 = O=C(Oc1ccc(C[C@H](N[*:1])C(=O)[*:2])cc1[N+](=O)[O-])c1cnccn1; NMeGlu(4S-Me) = C[C@@H](C[C@@H](C(=O)[*:2])N(C)[*:1])C(=O)[*:3]; X14 = C[C@@H](C[C@@H](C(=O)[*:2])N(C)[*:1])C(=O)NCc1ccc(Cl)cc1; X6 = C[C@@H](C[C@@H](C(=O)[*:2])N(C)[*:1])C(=O)NNC(=O)c1ccncc1; X9 = CSCCC(=O)Oc1ccc(C[C@H](N[*:1])C(=O)[*:2])cc1[N+](=O)[O-]; Tyr(3-NO2) = N[C@@H](Cc1ccc(O)c([N+](=O)[O-])c1)C(=O)O; X7 = O=C1O[C@@H](CN*)CN1c1ccc(N2CCOCC2)c(F)c1; Gly(E-crotyl) = C/C=C/C[C@H](N)C(=O)O; NMeL = CN[C@@H](CC(C)C)C(=O)O
How the values were obtained:
[1] = test system: five human cancer cell lines and two normal cell lines; conditions: MCF-7, A549, HCT116, L02
HCT116 = assay: cells; format: cell-based; conditions: Homo sapiens, HCT-116; colon cancer cell line
Huvec-12 = assay: Cytotoxicity assay (CCK-8); format: cell-based; conditions: normal human umbilical vein endothelial cell line
HeLa = assay: cells; format: cell-based; conditions: Homo sapiens, cervical carcinoma cell line
A549 = assay: Cytotoxicity assay (CCK-8); format: cell-based; conditions: Homo sapiens, lung cancer cell line
HepG2 = assay: cells; format: cell-based; conditions: Homo sapiens, hepatocellular carcinoma cell line
M. tuberculosis H37Rv [2] = assay: Antitubercular activity assay, broth dilution, auto-luminescent strain; format: cell-based, Mycobacterium tuberculosis
L02 = assay: cells; format: cell-based; conditions: normal human hepatic cell line
MCF-7 = assay: cells; format: cell-based; conditions: Homo sapiens, MCF7; breast adenocarcinoma cell line
[3] = test system: five human cancer cell lines and two normal cell lines; assay: cells
M. tuberculosis H37Rv [4] = test system: M. tuberculosis H37Rv; parameters: method as in Ma et al., 2017; conditions: ref Ma et al., 2017; cited from earlier work
[5] = Mycobacterium tuberculosis, H37RV, Day 7th, read-out: MICs against H37Rv, Day 7th
[6] = Mycobacterium tuberculosis, H37RV, Day 14th, read-out: MICs against H37Rv, Day 14th
[7] = Mycobacterium tuberculosis, H37RV, Day 3rd, read-out: MICs against H37Rv, Day 3rd
[8] = Mycobacterium tuberculosis, H37RV, read-out: MICs against H37Rv, Day 3rd
[9] = Mycobacterium tuberculosis, H37RV, read-out: MICs against H37Rv, Day 7th
[10] = Mycobacterium tuberculosis, H37RV, read-out: MICs against H37Rv, Day 14th

SMILES	promotion of cytotoxicity compared with ilamycin F [1]	IC50 (HCT116) [µM]	IC50 (Huvec-12) [µM]	IC50 (HeLa) [µM]	IC50 (A549) [µM]	IC50 (HepG2) [µM]	MIC (M. tuberculosis H37Rv [2]; Day 14th, read-out: MICs against H37Rv, Day 14th) [µM]	MIC (M. tuberculosis H37Rv [2]; [5]) [µM]	MIC (M. tuberculosis H37Rv [2]; [6]) [µM]	IC50 (L02) [µM]	IC50 (MCF-7) [µM]	IC50 ([3]; read-out: IC50 against MCF-7, A549, HCT116, and L02) [µM]	IC50 ([3]; read-out: IC50 against five human cancer cell lines and two normal cell lines) [µM]	MIC (M. tuberculosis H37Rv [2]; [7]) [µM]	MIC (M. tuberculosis H37Rv [2]; [8]) [µM]	MIC (M. tuberculosis H37Rv [2]; [9]) [µM]	MIC (M. tuberculosis H37Rv [2]; [10]) [µM]	MIC against M. tuberculosis H37Rv (M. tuberculosis H37Rv [4]) [µM]
C=CC(C)(C)n1cc(C[C@@H]2NC(=O)[C@H](C/C=C/C)NC(=O)[C@H](CC(C)C)NC(=O)[C@H](C[C@H](C)C(=O)N[C@H](C(=O)OC)[C@@H](C)O)N(C)C(=O)[C@H](C)NC(=O)[C@H](Cc3ccc(O)c([N+](=O)[O-])c3)NC(=O)[C@H](CC(C)C)N(C)C2=O)c2ccccc21 [Compound 1, ilamycin NJL1] (cyclo(A[X2]L[Gly(E-crotyl)][Trp(1-(1,1-Me2-allyl))][NMeL][Tyr(3-NO2)]))	3–8 fold	7.2	10.3	11.3	5.7	17.7	1.7 (≈ 1.97 µg/mL)	1.7 (≈ 1.97 µg/mL)	1.6 to 1.7 (≈ 1.85 to 1.97 µg/mL)	6.5	9	5.7 to 9	5.7 to 11.3					
C=CC(C)(C)n1cc(C[C@@H]2NC(=O)[C@H](C/C=C/C)NC(=O)[C@H](CC(C)C)NC(=O)[C@H](C[C@H](C)C(=O)NCc3ccc(Cl)cc3)N(C)C(=O)[C@H](C)NC(=O)[C@H](Cc3ccc(O)c([N+](=O)[O-])c3)NC(=O)[C@H](CC(C)C)N(C)C2=O)c2ccccc21 [Compound 11, ilamycin NJL11] (cyclo(A[X14]L[Gly(E-crotyl)][Trp(1-(1,1-Me2-allyl))][NMeL][Tyr(3-NO2)]))		> 50	> 50	> 50	> 50	> 50		3.4 (≈ 3.96 µg/mL)	3.4 (≈ 3.96 µg/mL)	> 50	> 50			3.4 (≈ 3.96 µg/mL)				
C=CC(C)(C)n1cc(C[C@@H]2NC(=O)[C@H](C/C=C/C)NC(=O)[C@H](CC(C)C)NC(=O)[C@H](C[C@H](C)C(=O)NCc3ccc(C(F)(F)F)cc3)N(C)C(=O)[C@H](C)NC(=O)[C@H](Cc3ccc(O)c([N+](=O)[O-])c3)NC(=O)[C@H](CC(C)C)N(C)C2=O)c2ccccc21 [Compound 12, ilamycin NJL12] (cyclo(A[X13]L[Gly(E-crotyl)][Trp(1-(1,1-Me2-allyl))][NMeL][Tyr(3-NO2)]))		> 50	> 50	> 50	> 50	> 50				> 50	> 50				> 100	> 100	> 100	
C=CC(C)(C)n1cc(C[C@@H]2NC(=O)[C@H](C/C=C/C)NC(=O)[C@H](CC(C)C)NC(=O)[C@H](C[C@H](C)C(=O)NNC(=O)c3ccncc3)N(C)C(=O)[C@H](C)NC(=O)[C@H](Cc3ccc(O)c([N+](=O)[O-])c3)NC(=O)[C@H](CC(C)C)N(C)C2=O)c2ccccc21 [Compound 13, ilamycin NJL13] (cyclo(A[X6]L[Gly(E-crotyl)][Trp(1-(1,1-Me2-allyl))][NMeL][Tyr(3-NO2)]))		> 50	> 50	> 50	> 50	> 50				> 50	> 50				27.6 (≈ 32.1 µg/mL)	27.6 (≈ 32.1 µg/mL)	27.6 (≈ 32.1 µg/mL)	
C=CC(C)(C)n1cc(C[C@@H]2NC(=O)[C@H](C/C=C/C)NC(=O)[C@H](CC(C)C)NC(=O)[C@H](C[C@H](C)C(=O)NC[C@H]3CN(c4ccc(N5CCOCC5)c(F)c4)C(=O)O3)N(C)C(=O)[C@H](C)NC(=O)[C@H](Cc3ccc(O)c([N+](=O)[O-])c3)NC(=O)[C@H](CC(C)C)N(C)C2=O)c2ccccc21 [Compound 14, ilamycin NJL14] (cyclo(A[NMeGlu(4S-Me)](X7)L[Gly(E-crotyl)][Trp(1-(1,1-Me2-allyl))][NMeL][Tyr(3-NO2)]))		> 50	> 50	> 50	> 50	> 50				> 50	> 50				48.5 (≈ 64 µg/mL)	48.5 (≈ 64 µg/mL)	48.5 (≈ 64 µg/mL)	
C=CC(C)(C)n1cc(C[C@@H]2NC(=O)[C@H](C/C=C/C)NC(=O)[C@H](CC(C)C)NC(=O)[C@H](C[C@H](C)C(=O)O)N(C)C(=O)[C@H](C)NC(=O)[C@H](Cc3ccc(OC(=O)c4cnccn4)c([N+](=O)[O-])c3)NC(=O)[C@H](CC(C)C)N(C)C2=O)c2ccccc21 [Compound 15, ilamycin NJL15] (cyclo(A[NMeGlu(4S-Me)]L[Gly(E-crotyl)][Trp(1-(1,1-Me2-allyl))][NMeL][X5]))		> 50	> 50	> 50	> 50	> 50		27.9 (≈ 32 µg/mL)	27.9 (≈ 32 µg/mL)	> 50	> 50			27.9 (≈ 32 µg/mL)				
C=CC(C)(C)n1cc(C[C@@H]2NC(=O)[C@H](C/C=C/C)NC(=O)[C@H](CC(C)C)NC(=O)[C@H](C[C@H](C)C(=O)O)N(C)C(=O)[C@H](C)NC(=O)[C@H](Cc3ccc(OC(=O)CCc4c[nH]c5ccccc45)c([N+](=O)[O-])c3)NC(=O)[C@H](CC(C)C)N(C)C2=O)c2ccccc21 [Compound 16, ilamycin NJL16] (cyclo(A[NMeGlu(4S-Me)]L[Gly(E-crotyl)][Trp(1-(1,1-Me2-allyl))][NMeL][X8]))		> 50	> 50	> 50	> 50	> 50		26.4 (≈ 32 µg/mL)	26.4 (≈ 32 µg/mL)	> 50	> 50			26.4 (≈ 32 µg/mL)				
C=CC(C)(C)n1cc(C[C@@H]2NC(=O)[C@H](C/C=C/C)NC(=O)[C@H](CC(C)C)NC(=O)[C@H](C[C@H](C)C(=O)O)N(C)C(=O)[C@H](C)NC(=O)[C@H](Cc3ccc(OC(=O)Cc4ccc(F)cc4)c([N+](=O)[O-])c3)NC(=O)[C@H](CC(C)C)N(C)C2=O)c2ccccc21 [Compound 17, ilamycin NJL17] (cyclo(A[NMeGlu(4S-Me)]L[Gly(E-crotyl)][Trp(1-(1,1-Me2-allyl))][NMeL][X3]))		> 50	> 50	> 50	> 50	> 50		27.2 (≈ 32.1 µg/mL)	27.2 (≈ 32.1 µg/mL)	> 50	> 50			27.2 (≈ 32.1 µg/mL)				
C=CC(C)(C)n1cc(C[C@@H]2NC(=O)[C@H](C/C=C/C)NC(=O)[C@H](CC(C)C)NC(=O)[C@H](C[C@H](C)C(=O)O)N(C)C(=O)[C@H](C)NC(=O)[C@H](Cc3ccc(OC(=O)CCSC)c([N+](=O)[O-])c3)NC(=O)[C@H](CC(C)C)N(C)C2=O)c2ccccc21 [Compound 18, ilamycin NJL18] (cyclo(A[NMeGlu(4S-Me)]L[Gly(E-crotyl)][Trp(1-(1,1-Me2-allyl))][NMeL][X9]))		> 50	> 50	> 50	> 50	> 50		28 (≈ 32 µg/mL)	28 (≈ 32 µg/mL)	> 50	> 50			28 (≈ 32 µg/mL)				
C=CC(C)(C)n1cc(C[C@@H]2NC(=O)[C@H](C/C=C/C)NC(=O)[C@H](CC(C)C)NC(=O)[C@H](C[C@H](C)C(=O)O)N(C)C(=O)[C@H](C)NC(=O)[C@H](Cc3ccc(O)c([N+](=O)[O-])c3)NC(=O)[C@H](CC(C)C)N(C)C2=O)c2ccccc21 [ilamycin F, reference compound] (cyclo(A[NMeGlu(4S-Me)]L[Gly(E-crotyl)][Trp(1-(1,1-Me2-allyl))][NMeL][Tyr(3-NO2)]))		44.8	46.1	31	47	> 50		15.4 (≈ 16.1 µg/mL)	1.9 (≈ 1.98 µg/mL)	43.9	32.2			30.7 (≈ 32 µg/mL)				1.2 (≈ 1.25 µg/mL)
